Reference: US12514851B2, “Use of 2,3,5-substituted thiophene compound for preventing, ameliorating, or treating ovarian cancer” (PHAROS IBIO CO., LTD, priority 2020, dated 2026)

Columns and labels:
Type in all cases: cell-based
[1] = test system: SK-OV-3 ovarian cancer cell line; test: Inhibitory activity against ovarian cancer cell lines, agents alone (Celltiter glo cell viability); settings: SK-OV3
Description: (§5) In 100-mm culture dishes (SPL) at 37° C. under 5% CO2, the CAOV3 ovarian cancer cell line was cultured using DMEM (Dulbeco's Modified Eagle Medium), and the OVCAR3, SK-OV-3 and SW626 ovarian cancer cell lines were cultured using RPMI1640 medium. Thereafter, each cell line was diluted to 3,000 cells/80 μl using PBS (phosphate-buffered saline) (Biosesang).
(§6) After incubation, the cells were counted using a Celltiter glo assay kit (Promega), and cell viability was measured by expressing the cell count as a percentage relative to that of a control group not treated with PHI-101 or the anticancer agent.

[2] = test system: CAOV3 ovarian cancer cell line; test: as above
Description: as §5, §6

[3] = test system: SW626 ovarian cancer cell line; test: as above
Description: as §5, §6

[4] = test system: OVCAR3 ovarian cancer cell line; test: as above
Description: as §5, §6

[5] = test system: TP53-mutant ovarian cancer cell lines; test: Selective inhibitory activity against TP53-mutant ovarian cancer cell lines; settings: TP53-mutant versus non-mutant ovarian cancer cell lines (Table 2)
Description: In order to evaluate the selective inhibitory activity of PHI-101, the characteristics of each cell line and the inhibitory activity of PHI-101 against ovarian cancer cell lines were investigated as shown in Table 2 below.

[6] = test system: SK-OV3 ovarian cancer cell line; test: Synergistic effect of PHI-101 and olaparib (Celltiter glo viability, Combination Index by CalcuSyn); settings: Homo sapiens, SK-OV-3, Table 7, combination index experiment, 72 hours
Description: (§1) In order to establish the concentrations of PHI-101 and olaparib which are in an integer ratio in the combination index experiment, based on the IC50 value of olaparib relative to the relatively low IC50 value (1×) of PHI-101, the integer ratio between PHI-101 and olaparib was obtained as shown in Table 4 below.
(§2) Each prepared 10× solution was serially diluted at 1:2 in each of six E-tubes, each containing 150 μl of medium. Then, a PHI-101 96-well plate (FIG. 4) and an olaparib 96-well plate (FIG. 5) were prepared separately, and 30 μl of the serially diluted PHI-101 or olaparib was dispensed into each well of the corresponding plate. 30 μl of medium was dispensed into each well not containing the substance.
(§3) Then, each well was incubated at 37° C. under 5% CO2 for 72 hours, and each experiment was performed in triplicate.
(§4) Next, using the CalcuSyn software and based on the Combination Index (CI) shown in Table 8, the CI for each ovarian cancer cell line depending on the treatment concentrations of PHI-101 and olaparib was calculated, and whether there was synergism between the substances was evaluated.

[7] = test system: CAOV3 ovarian cancer cell line; test: as above; settings: Homo sapiens, Caov-3, Table 7, combination index experiment, 72 hours
Description: as §1, §2, §3, §4

[8] = test system: OVCAR3 ovarian cancer cell line; test: as above; settings: Homo sapiens, OVCAR-3, Table 7, combination index experiment, 72 hours
Description: as §1, §2, §3, §4

[9] = Homo sapiens, SK-OV-3, agent alone, 72 hours
[10] = Homo sapiens, Caov-3, agent alone, 72 hours
[11] = Homo sapiens, agent alone, 72 hours
[12] = Homo sapiens, OVCAR-3, agent alone, 72 hours

Structure (SMILES) | IC50 [1, 9] [µM] | IC50 [2, 10] [µM] | IC50 [3, 11] [µM] | IC50 [4, 12] [µM] | IC50 [6] [µM] | IC50 [7] [µM] | IC50 [8] [µM] | other results
NC(=O)Nc1cc(C#Cc2cccc(F)c2)sc1C(=O)N[C@H]1CCCNC1 [PHI-101, (S)-5-((3-fluorophenyl)ethynyl)-N-(piperidin-3-yl)-3-ureido thiophene-2-carboxamide] | 5.6 | 0.5 | 3.6 | 2.7 | 4.39 | 0.873 | 3.5 | IC50 ([1]; Homo sapiens, SK-OV-3, Table 4, values used to establish treatment starting concentrations): 5.6 µM; IC50 ([2]; Homo sapiens, Caov-3, Table 4, values used to establish treatment starting concentrations): 0.523 µM; IC50 ([3]; Homo sapiens, Table 4, values used to establish treatment starting concentrations): 3.64 µM; selective inhibitory activity [5]: better inhibitory activity against the TP53-mutant ovarian cancer cell lines; IC50 ([4]; Homo sapiens, OVCAR-3, Table 4, values used to establish treatment starting concentrations): 2.76 µM
COc1cccc(OCCCN)c1-c1cc(Nc2cnc(C#N)cn2)n[nH]1 [Prexasertib, prexasertib] | – | – | – | 6.3 | – | – | – | –
N.N.[Cl][Pt][Cl] [Cisplatin, cisplatin] | – | – | – | – | – | – | – | IC50 ([1]; agent alone, 72 hours): 12.3 µM; IC50 ([2]; agent alone, 72 hours): 3.5 µM; IC50 ([3]; agent alone, 72 hours): 8 µM; IC50 ([4]; agent alone, 72 hours): 4.4 µM
CC[C@@]1(O)C(=O)OCc2c1cc1n(c2=O)Cc2cc3c(CN(C)C)c(O)ccc3nc2-1 [Topotecan, topotecan] | 3.7 | 3.9 | 14.4 | 8.3 | – | – | – | –

Now from value to compound, other results behind:

IC50 [1, 9] [µM] | IC50 [2, 10] [µM] | IC50 [3, 11] [µM] | IC50 [4, 12] [µM] | IC50 [6] [µM] | IC50 [7] [µM] | IC50 [8] [µM] | Structure (SMILES) | other results
114 | 3.6 | 29.8 | 5.7 | – | – | – | CC(=O)O[C@H]1C(=O)[C@@]2(C)[C@H]([C@H](OC(=O)c3ccccc3)[C@]3(O)C[C@H](OC(=O)[C@H](O)[C@@H](NC(=O)c4ccccc4)c4ccccc4)C(C)=C1C3(C)C)[C@]1(OC(C)=O)CO[C@@H]1C[C@@H]2O [Paclitaxel, paclitaxel] | –
114 | 59.7 | 147 | 96.5 | 114 | 59.7 | 96.5 | O=C(c1cc(Cc2n[nH]c(=O)c3ccccc23)ccc1F)N1CCN(C(=O)C2CC2)CC1 [Olaparib, olaparib] | –
